From US7488712B2, “Histone deacetylase inhibitors and methods for producing the same” (Kyushu Institute of Technology, priority 2002, dated 2009)
*1 amine or outer side, *2 acyl side, *3 side chain or, on linkers, in order; H or OH if unused. Where a SMILES comes first, the peptide text is derived from it. Bridges are numbered along the chain shown (N, C = ends). Roman numbers before positions name the chains, in order. [ ]: non-standard residue; d: D form. hNle(7-SH) = O=C([C@H](CCCCCS[*:3])N[*:1])[*:2]

What was measured:
mouse HDAC6 = molecular target: T1, mouse HDAC6 (Mus musculus, UniProt Q9Z2V5); assay: In vitro HDAC inhibition activity, [3H]-acetylated histone substrate, HDAC6; assay type: biochemical; conditions: Table 2; homodimer
T1 construct: HA; made in house; host or cells: 293T cells (transient transfection, anti-HA immunoprecipitation, HA peptide elution)
T1 sequence (Q9Z2V5 1-1149): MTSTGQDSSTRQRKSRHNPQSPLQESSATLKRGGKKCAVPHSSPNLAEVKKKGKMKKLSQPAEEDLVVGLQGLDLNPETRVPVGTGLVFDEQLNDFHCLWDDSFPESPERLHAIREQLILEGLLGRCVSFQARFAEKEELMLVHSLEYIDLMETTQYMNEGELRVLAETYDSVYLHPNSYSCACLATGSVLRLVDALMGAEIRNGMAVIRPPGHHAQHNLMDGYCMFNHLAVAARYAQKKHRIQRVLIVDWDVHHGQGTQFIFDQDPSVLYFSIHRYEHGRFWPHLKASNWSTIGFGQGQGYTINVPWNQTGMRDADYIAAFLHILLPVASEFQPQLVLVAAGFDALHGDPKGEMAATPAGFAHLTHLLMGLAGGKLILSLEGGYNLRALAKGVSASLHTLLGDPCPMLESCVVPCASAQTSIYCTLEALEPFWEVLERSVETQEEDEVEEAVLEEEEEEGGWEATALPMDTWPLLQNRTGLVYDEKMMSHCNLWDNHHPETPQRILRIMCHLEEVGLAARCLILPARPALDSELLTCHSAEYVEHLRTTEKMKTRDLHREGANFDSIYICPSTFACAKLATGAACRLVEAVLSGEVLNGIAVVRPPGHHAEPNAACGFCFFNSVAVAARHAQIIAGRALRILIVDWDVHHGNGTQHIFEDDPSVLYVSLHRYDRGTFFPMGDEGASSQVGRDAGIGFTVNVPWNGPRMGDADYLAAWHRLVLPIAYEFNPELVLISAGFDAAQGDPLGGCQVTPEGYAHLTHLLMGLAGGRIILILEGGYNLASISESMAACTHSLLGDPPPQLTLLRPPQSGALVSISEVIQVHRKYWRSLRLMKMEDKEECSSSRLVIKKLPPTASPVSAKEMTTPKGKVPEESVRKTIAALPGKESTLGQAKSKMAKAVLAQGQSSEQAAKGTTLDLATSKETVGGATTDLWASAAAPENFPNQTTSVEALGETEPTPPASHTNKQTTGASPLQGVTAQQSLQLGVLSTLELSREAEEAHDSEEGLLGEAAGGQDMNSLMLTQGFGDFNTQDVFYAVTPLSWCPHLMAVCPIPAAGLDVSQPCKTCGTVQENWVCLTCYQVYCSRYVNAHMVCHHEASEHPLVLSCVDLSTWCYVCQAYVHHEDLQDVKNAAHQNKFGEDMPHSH
Procedure: (§1) To measure HDAC inhibition activity, an HDAC solution was prepared as described below. 1×10^7 of 293T cells were plated on to a 100-mm dish and, after 24 hours, transfected with vectors (1 μg) expressing human HDAC1 and HDAC4 or mouse HDAC6, using LipofectAmine 2000 reagent (Life Technologies, Inc. Gaithersburg, Md.). […] The vectors were introduced for five hours in OPTI-MEM. The medium was then replaced with Dulbecco's modified Eagle's medium (DMEM), and incubated for 19 hours. The cells were washed with PBS, suspended in lysis buffer (50 mM Tris-HCl (pH7.5), 120 mM NaCl, 5 mM EDTA, and 0.5% Nonidet P-40), and sonicated. The supernatant was collected by centrifugation and nonspecific protein was removed using Protein A/G plus agarose beads (Santa Cruz Biotechnologies, Inc.). Anti-FLAG M2 antibodies (Sigma-Aldrich, Inc.) were added to the supernatant of cells expressing HDAC1 or HDAC4. Anti-HA antibodies (clone 3F10, Roche Molecular Biochemicals) were added to the supernatant of cells expressing HDAC6. Reaction in the respective mixtures was carried out at 4° C. for one hour. The resulting reaction mixtures were independently mixed with agarose beads and further reacted at 4° C. for one hour. The agarose beads were washed three times with lysis buffer and then washed once with HD buffer (20 mM Tris-HCl (pH8.0), 150 mM NaCl, 10% glycerol, and a complete protease inhibitor cocktail (Boehringer Mannheim, Germany)). […] The HDAC reaction solution was used for determining HDAC inhibition activity as shown below.
(§2) In vitro HDAC inhibition activity was evaluated as follows: A test compound was dissolved in DMSO and adjusted to 10 mM. This was used as an inhibitor stock solution. […] These reactions were stopped by adding 10 μl HCl. The [^3H] acetic acid excised by the enzyme reaction was extracted with ethyl acetate and subjected to radioactive dose measurement. As a negative control, the same procedure was carried out in which no inhibitor was added to the reaction system. The inhibition activity was expressed as a 50% inhibition concentration (“IC50 (nM)”) of the HDAC activity in the negative control (Tables 1 to 4).

in vitro = conditions: human, Cancer-Cell-Selective Cytotoxicity
Procedure: (§3) Human normal lung cells (TIG-3) and human uterine cancer cells (HeLa) were used to test SCOP cytotoxicity. These TIG-3 and HeLa cells were cultured in a DMEM medium comprising 10% FBS at 37° C. in the presence of 5% carbon dioxide in a steam-saturated incubator. The TIG-3 and HeLa cells were plated in 100 μl/well of the above-described medium on a 96-well microtiter plate, at a density of 30,000 cells/well and 10,000 cells/well respectively. This was then cultured for 18 hours. Test compound solution diluted with medium was added to each well and culture was continued for another 48 hours.
(§4) 30 μl of supernatant from each well was transferred to another 96-well microtiter plate (A), and the remaining supernatant was discarded. 100 μl of 0.5% Triton-X/PBS was added to each well to lyse the cells, and 30 μl was then transferred to each respective well of another 96-well microtiter plate (B). 30 μl of LDH-Cytotoxic Test (Wako) substrate solution was added to each well of these 96-well microtiter plates A and B, causing a color reaction. Once the color reaction was sufficiently progressed, it was stopped by adding 60 μl of a quenching solution. Color intensity was measured at OD560 nm using a microplate reader (Softmax). [A/(A+B)] was calculated as the free-LDH ratio. […] The higher the activity value for cancer-cell-selective cell damage (LD50 for normal cells/LD50 for cancer cells), the more that cancer-cell-selective apoptosis was induced.

[1] = tested on: human uterine cancer cells (HeLa); assay: in vitro
Procedure: as §3, §4

human HDAC4 = molecular target: T2, human HDAC4 (Homo sapiens, UniProt P56524); assay: In vitro HDAC inhibition activity, [3H]-acetylated histone substrate, HDAC4; assay type: biochemical; conditions: Table 2; homodimer
T2 construct: FLAG; made in house; host or cells: 293T cells (transient transfection, anti-FLAG immunoprecipitation, FLAG peptide elution)
Procedure: as §1, §2

[2] = Stability in serum (FCS), read out by p21 promoter inducing activity; assay type: in vitro ADME
Procedure: The stability of SCOP 152, SCOP 304, and SCOP 402 in serum was evaluated by the method shown below: 1 μl of 10 mM SCOP 152, SCOP 304, and SCOP 402 was added to 99 μl FCS, and incubated at 37° C. Each hour, NaCl in a sufficient amount for saturation and 1 ml of ethyl acetate were added to each mixture. After extraction, from 800 μl of the ethyl acetate phase, the ethyl acetate was distilled off, and then 100 μl of DMSO was added to the residue. The resulting solution was further diluted ten times with DMSO and used to measure p21 promoter inducing activity. Activity at incubation time zero was taken as 100%, and activities were compared (FIG. 7).

human HDAC1 = molecular target: T3, human HDAC1 (Homo sapiens, UniProt Q13547); assay: In vitro HDAC inhibition activity, [3H]-acetylated histone substrate, HDAC1; assay type: biochemical; conditions: Table 2; homodimer
T3 construct: FLAG; made in house; host or cells: 293T cells (transient transfection, anti-FLAG immunoprecipitation, FLAG peptide elution)
Procedure: as §1, §2

[3] = tested on: human wild-type p21 promoter; assay: p21 promoter-inducing activity (luciferase) in MFLL-9 cells; assay type: cell-based
Procedure: The HDAC inhibition activity in vivo was measured using p21 promoter-inducing activity as an index, as shown below. The MFLL-9 cells employed for the experiments stably maintained fusion genes of human wild-type p21 promoter and luciferase (Dr. B. Vogelstaein). Using phenol red-free DMEM medium comprising 10% FBS, cultivation was carried out in a steam-saturated incubator at 37° C. with 5% carbon dioxide. The MFLL-9 cells were plated at a density of 85,000 cells/well on a 96-well microtiter plate, each in 99 μl of the above-mentioned medium. These were then cultivated for six hours. One μl of test compound solution was added to each well, which was then cultured for another 18 hours.
The intensity of luminescence caused by the product of the enzyme reaction for intracellular luciferase expression was measured using Luc Lite (Packard BioScience Company). A group in which test compounds were not added was used as a negative control group. The values measured for this group were used as a standard. The activities for each concentration of added test compound were expressed relative to the above-mentioned standard value, 1.

[4] = tested on: Human normal lung cells (TIG-3); assay: Cytotoxicity test (free-LDH ratio), TIG-3; assay type: cell-based; conditions: 48 hours; free-LDH ratio 50%; without DTT
Procedure: This was then cultured for 18 hours.

T2 sequence (O15379 whole entry partner): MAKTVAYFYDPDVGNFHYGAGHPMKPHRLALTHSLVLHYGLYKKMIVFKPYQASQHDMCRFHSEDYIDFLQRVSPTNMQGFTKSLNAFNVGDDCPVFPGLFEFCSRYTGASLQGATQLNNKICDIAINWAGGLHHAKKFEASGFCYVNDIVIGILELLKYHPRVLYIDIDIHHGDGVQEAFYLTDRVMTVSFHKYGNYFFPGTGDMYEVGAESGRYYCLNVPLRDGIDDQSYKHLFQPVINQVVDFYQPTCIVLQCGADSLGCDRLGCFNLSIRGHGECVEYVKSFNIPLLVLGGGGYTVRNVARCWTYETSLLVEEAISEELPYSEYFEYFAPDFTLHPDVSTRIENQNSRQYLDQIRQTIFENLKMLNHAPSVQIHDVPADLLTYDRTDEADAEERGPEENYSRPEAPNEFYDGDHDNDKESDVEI
T2 sequence (P56524 whole entry): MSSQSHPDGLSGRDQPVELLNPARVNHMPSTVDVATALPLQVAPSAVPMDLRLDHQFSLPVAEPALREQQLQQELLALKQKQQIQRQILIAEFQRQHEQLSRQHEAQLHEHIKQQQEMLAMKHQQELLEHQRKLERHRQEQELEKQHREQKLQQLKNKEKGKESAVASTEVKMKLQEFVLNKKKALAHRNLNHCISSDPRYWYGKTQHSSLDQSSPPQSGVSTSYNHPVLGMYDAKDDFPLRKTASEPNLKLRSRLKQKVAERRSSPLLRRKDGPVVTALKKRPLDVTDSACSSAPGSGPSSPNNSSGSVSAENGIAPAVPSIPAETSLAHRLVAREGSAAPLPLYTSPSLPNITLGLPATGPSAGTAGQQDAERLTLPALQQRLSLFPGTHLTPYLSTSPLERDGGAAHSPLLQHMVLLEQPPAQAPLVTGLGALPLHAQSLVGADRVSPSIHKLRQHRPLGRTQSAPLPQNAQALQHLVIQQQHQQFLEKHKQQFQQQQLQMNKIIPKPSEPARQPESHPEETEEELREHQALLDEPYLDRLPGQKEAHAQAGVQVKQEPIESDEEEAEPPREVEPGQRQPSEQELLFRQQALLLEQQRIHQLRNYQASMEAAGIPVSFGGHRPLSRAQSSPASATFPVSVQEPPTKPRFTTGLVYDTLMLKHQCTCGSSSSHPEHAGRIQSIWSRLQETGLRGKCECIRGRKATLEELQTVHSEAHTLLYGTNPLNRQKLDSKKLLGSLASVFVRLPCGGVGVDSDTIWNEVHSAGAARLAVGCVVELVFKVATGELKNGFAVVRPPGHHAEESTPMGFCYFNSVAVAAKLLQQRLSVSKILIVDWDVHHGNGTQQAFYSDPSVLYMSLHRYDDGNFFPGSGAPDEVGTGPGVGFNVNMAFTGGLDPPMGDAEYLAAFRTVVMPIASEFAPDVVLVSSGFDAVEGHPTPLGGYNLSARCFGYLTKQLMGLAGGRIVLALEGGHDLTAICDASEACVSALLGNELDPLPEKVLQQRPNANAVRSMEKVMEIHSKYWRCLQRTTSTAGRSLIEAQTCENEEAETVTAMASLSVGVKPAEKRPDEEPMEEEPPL
T3 sequence (Q13547 whole entry): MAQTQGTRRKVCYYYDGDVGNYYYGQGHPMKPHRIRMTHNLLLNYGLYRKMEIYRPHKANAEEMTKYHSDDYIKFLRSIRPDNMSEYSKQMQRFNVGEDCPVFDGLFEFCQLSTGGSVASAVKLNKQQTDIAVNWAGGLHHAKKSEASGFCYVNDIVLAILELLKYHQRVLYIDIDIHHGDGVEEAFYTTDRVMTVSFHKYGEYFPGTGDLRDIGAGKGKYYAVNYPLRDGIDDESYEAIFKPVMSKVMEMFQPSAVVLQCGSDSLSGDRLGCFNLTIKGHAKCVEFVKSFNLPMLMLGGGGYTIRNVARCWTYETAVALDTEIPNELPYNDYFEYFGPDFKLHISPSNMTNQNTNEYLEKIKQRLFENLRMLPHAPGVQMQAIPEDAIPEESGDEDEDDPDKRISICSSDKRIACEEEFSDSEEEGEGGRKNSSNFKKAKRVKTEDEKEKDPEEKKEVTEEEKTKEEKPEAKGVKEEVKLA

Structure (SMILES)	IC50 (mouse HDAC6) [nM]	selectivity ratio at 48 h (in vitro)	Cancer-Cell-Selective Cytotoxicity ([1]; human, 48 h)	IC50 (human HDAC4) [nM]	Retention of activity in serum [2]	IC50 (human HDAC1) [nM]	EC50 ([3]; Table 2, homodimer) [µM]	LD50 (nM) HeLa ([1]; 48 hours, free-LDH ratio 50%, without DTT) [nM]	LD50 (nM) TIG-3 [4] [nM]	EC50 ([3]; Table 4, positive control) [µM]
CC[C@H](C)[C@@H]1NC(=O)[C@@H](Cc2ccc(OC)cc2)NC(=O)[C@H](CCCCCSSCCCCC[C@@H]2NC(=O)[C@H]3CCCN3C(=O)[C@H]([C@@H](C)CC)NC(=O)[C@@H](Cc3ccc(OC)cc3)NC2=O)NC(=O)[C@H]2CCCN2C1=O [SCOP 304, cyclo(-L-Am7(-)-D-Tyr(Me)-L-Ile-D-Pro-)] (I: cyclo([hNle(7-SH)][dY](Me)I[dP]) / II: cyclo([hNle(7-SH)][dY](Me)I[dP]); disulfide I:1-II:1)	> 500000	25.2	23.0	145	stably retain activity in serum for longer than SCOP 152	142	0.341	–	–	–
CC(/C=C/C(=O)NO)=C\[C@@H](C)C(=O)c1ccc(N(C)C)cc1 [TSA, Tricostatin A, reference compound]	–	–	–	–	–	–	–	41.4	1580	0.445
